Data published in US20250205200A1, “5-METHOXY-N,N-[…][…] THE TREATMENT OF […]” (GH RESEARCH IRELAND LIMITED, priority 2022, published 2025).

What was measured:
human hepatocytes = experiment: Metabolic stability in Hμrel human hepatocyte co-culture assay; format: in vitro ADME; conditions: for Metabolic turnover: human hepatocytes
patients with PPD = conditions: cited from earlier work
[1] = Pharmacokinetics of 5-MeO-DMT and bufotenine after inhalation; format: in vivo, human
human plasma protein = experiment: Plasma binding of 5-MIAA; format: in vitro ADME; conditions: estimated from fu and glomerular filtration rate 90-120 ml/min
[2] = rat; cited from earlier work

## COc1ccc2[nH]cc(CCO)c2c1 [5-Methoxyindole-3-ethanol]
Human hepatocytes; 1 μM Stromal cells, 4 h
  Relative LC/MS peak area remaining: 97%
Human hepatocytes; 1 μM Stromal cells, 8 h
  Relative LC/MS peak area remaining: 107%
Human hepatocytes; 1 μM Stromal cells, 24 h
  Relative LC/MS peak area remaining: 94%
Human hepatocytes; 1 μM Stromal cells, 48 h
  Relative LC/MS peak area remaining: 102%
Human hepatocytes; 1 μM Stromal cells, 72 h
  Relative LC/MS peak area remaining: 104%
Human hepatocytes; 10 μM Stromal cells, 4 h
  Relative LC/MS peak area remaining: 99%
Human hepatocytes; 10 μM Stromal cells, 8 h
  Relative LC/MS peak area remaining: 105%
Human hepatocytes; 10 μM Stromal cells, 24 h
  Relative LC/MS peak area remaining: 86%
Human hepatocytes; 10 μM Stromal cells, 48 h
  Relative LC/MS peak area remaining: 98%
Human hepatocytes; 10 μM Stromal cells, 72 h
  Relative LC/MS peak area remaining: 104%
Human hepatocytes
  Metabolic turnover: high metabolic turnover
  Disappearance with stromal cell controls: no disappearance

## CC(=O)[C@H]1CC[C@H]2[C@@H]3CC[C@H]4C[C@H](O)CC[C@]4(C)[C@H]3CC[C@]12C [brexanolone]
Patients with PPD; one phase 3 trial, 30 days after initiation of infusion
  HAM-D scores: significantly reduced
Patients with PPD; other phase 3 trial
  Efficacy (HAM-D): failed to show efficacy beyond 7 days

## CN(C)CCc1c[nH]c2ccc(O)cc12 [Bufotenine (5-OH-DMT), Bufotenine]
[1]; 15 minutes after administration of 5-MeO-DMT
  Detection of bufotenine in human serum: In no case is it detected
[1]; after administration of 5-MeO-DMT
  Detection of bufotenine in human serum: barely detected
[1]; after inhaled 5-MeO-DMT
  Samples with bufotenine concentration above LLOQ (25 pg/ml): Only in few samples

## 5-Methoxyindole acetic acid [5-Methoxyindole acetic acid (5-MIAA)]
Human hepatocytes
  Metabolic turnover: low metabolic turnover
  Disappearance with stromal cell controls: no disappearance
Human hepatocytes; in the presence of hepatocytes, 1 and 10 μM
  Remaining abundance after 72 h: 75-82%
Human plasma protein
  Time until removed from circulation for urinary excretion: 1 to 2 h

## COc1ccc2[nH]cc(CC[N+](C)(C)[O-])c2c1 [5-MeO-DMT-N-oxide]
[2]
  Excretion: rapid excretion
